Assays:
[1] = target: casein kinase 1 epsilon (CK1 epsilon) (Homo sapiens (Human), UniProt P49674); assay: Test A: inhibitory activity on CK1 epsilon, casein phosphorylation assay on ATP-33P filter plate; format: biochemical; details: IC50 values or IC50 ranges (result of several experiments), ATP 10 μM final
Procedure, shortened: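 Human CK1 epsilon (3 ng/μL final) phosphorylates dephosphorylated casein (0.2 μg/μL) with ATP-33P plus 10 μM cold ATP (KM for ATP 21 μM), 2 h at room temperature, pH 7.5 Tris buffer. TCA-precipitated protein counted by scintillation; compounds at 10 to 0.001 μM give IC50 values or % inhibition at 10 μM.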

Sequence of casein kinase 1 epsilon (CK1 epsilon) (P49674 whole entry): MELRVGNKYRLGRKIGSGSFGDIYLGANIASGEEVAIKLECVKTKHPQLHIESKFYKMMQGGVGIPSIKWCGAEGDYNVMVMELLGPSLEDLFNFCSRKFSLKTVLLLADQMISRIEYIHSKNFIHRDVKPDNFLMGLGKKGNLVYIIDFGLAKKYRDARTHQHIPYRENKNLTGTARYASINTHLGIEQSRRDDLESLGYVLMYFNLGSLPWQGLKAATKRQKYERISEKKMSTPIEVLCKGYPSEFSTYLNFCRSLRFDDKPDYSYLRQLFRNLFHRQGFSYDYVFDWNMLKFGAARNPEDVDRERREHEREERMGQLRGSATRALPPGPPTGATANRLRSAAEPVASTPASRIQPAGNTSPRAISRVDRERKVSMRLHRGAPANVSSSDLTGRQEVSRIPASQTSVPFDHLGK

Row | Compound | melting point | IC50 [1]
1 | NC(=O)c1c(-c2ccccc2)c(Cl)n2c1CN(C(=O)NC1CCOC1)CC2 (centres unmarked) [Compound 92, 6-chloro-7-phenyl-N^2-(tetrahydrofuran-3-yl)-3,4-dihydropyrrolo[1,2-a]pyrazine-2,8(1H)-dicarboxamide] | 181 to 185 °C | 11 to 13 nM
2 | NC(=O)c1c(-c2cccc(OC(F)(F)F)c2)c(Cl)n2c1CN(C(=O)NC1CCOCC1)CC2 [Compound 97, 6-chloro-N^2-(tetrahydro-2H-pyran-4-yl)-7-[3-(trifluoromethoxy)phenyl]-3,4-dihydropyrrolo[1,2-a]pyrazine-2,8(1H)-dicarboxamide] | 203 to 205 °C | 122 nM
3 | CC1(C)CC(NC(=O)N2CCn3c(Cl)c(-c4cccc(F)c4)c(C(N)=O)c3C2)CCO1 (centres unmarked) [Compound 99, 6-chloro-7-(3-fluorophenyl)-N^2-(2,2-dimethyl-tetrahydro-2H-pyran-4-yl)-3,4-dihydropyrrolo[1,2-a]pyrazine-2,8(1H)-dicarboxamide] | 141 to 143 °C | 4 nM
4 | CC(C)(NC(=O)N1CCn2c(C#N)c(-c3cccc(F)c3)c(C(N)=O)c2C1)C(F)(F)F [Compound 107, 6-cyano-7-(3-fluorophenyl)-N^2-(1,1,1-trifluoro-2-methylpropan-2-yl)-3,4-dihydropyrrolo[1,2-a]pyrazine-2,8(1H)-dicarboxamide] | 202 to 204 °C | < 1 nM
5 | N#Cc1c(-c2cccc(F)c2)c(C(N)=O)c2n1CCN(C(=O)NC1CCOCC1)C2 [Compound 109, 6-cyano-7-(3-fluorophenyl)-N^2-(tetrahydro-2H-pyran-4-yl)-3,4-dihydropyrrolo[1,2-a]pyrazine-2,8(1H)-dicarboxamide] | 232 to 234 °C | 9 nM
6 | COc1ccc(-c2c(C(N)=O)c3n(c2C2CC2)CCN(C(=O)NC24CC5CC(CC2C5)C4)C3)cc1 [Compound 53, 6-cyclo-propyl-N^2-(hexahydro-2,5-methanopentalen-3a(1H)-yl)-7-(4-methoxyphenyl)-3,4-dihydropyrrolo[1,2-a]pyrazine-2,8(1H)-dicarboxamide] | 216 to 219 °C | 7 nM
7 | CC(C)(C)NC(=O)N1CCn2c(c(C(N)=O)c(-c3ccc(F)cc3)c2C2CC2)C1 [Compound 47, N^2-tert-butyl-6-cyclo-propyl-7-(4-fluorophenyl)-3,4-dihydropyrrolo[1,2-a]pyrazine-2,8(1H)-dicarboxamide] | 220 to 223 °C | 45 to 146 nM
8 | CC(C)(C)NC(=O)N1CCn2c(c(C(N)=O)c(-c3ccc(Oc4ccccc4)cc3)c2C2CC2)C1 [Compound 39, N^2-tert-butyl-6-cyclo-propyl-7-(4-phenoxyphenyl)-3,4-dihydropyrrolo[1,2-a]pyrazine-2,8(1H)-dicarboxamide] | 157 to 159 °C | 4 to 36 nM
9 | COc1ccc(-c2c(C(N)=O)c3n(c2C2CC2)CCN(C(=O)NC24CC5CC(CC(C5)C2)C4)C3)cc1 [Compound 55, N^2-(adamantan-1-yl)-6-cyclo-propyl-7-(4-methoxyphenyl)-3,4-dihydropyrrolo[1,2-a]pyrazine-2,8(1H)-dicarboxamide] | 224 to 226 °C | 3 to 5 nM
10 | COc1ccc(-c2c(C(N)=O)c3n(c2Cl)CCN(C(=O)NC(C)(C)C)C3)cc1 [Compound 64, N^2-tert-butyl-6-chloro-7-(4-methoxyphenyl)-3,4-dihydropyrrolo[1,2-a]pyrazine-2,8(1H)-dicarboxamide] | 168 to 170 °C | 1 to 5 nM
11 | COc1ccc(-c2c(C(N)=O)c3n(c2C2CC2)CCN(C(=O)NC2(C4CC4)CC2)C3)cc1 [Compound 51, N^2-[1,1′-bi(cyclo-propyl)-1-yl]-6-cyclo-propyl-7-(4-methoxyphenyl)-3,4-dihydropyrrolo[1,2-a]pyrazine-2,8(1H)-dicarboxamide] | 175 to 177 °C | 40 nM
12 | CC(C)(C)NC(=O)N1CCn2c(C#N)c(-c3cccc(F)c3)c(C(N)=O)c2C1 [Compound 105, 6-cyano-7-(3-fluorophenyl)-N^2-(tert-butyl)-3,4-dihydropyrrolo[1,2-a]pyrazine-2,8(1H)-dicarboxamide] | > 217 °C | 1 nM
13 | CC(C)(C)NC(=O)N1CCn2c(Cl)c(-c3cccc(F)c3)c(C(N)=O)c2C1 [Compound 67, N^2-tert-butyl-6-chloro-7-(3-fluorophenyl)-3,4-dihydropyrrolo[1,2-a]pyrazine-2,8(1H)-dicarboxamide] | 196 to 198 °C | 1 to 5 nM
14 | NC(=O)c1c(-c2cccc(F)c2)c(Cl)n2c1CN(C(=O)NC1COC1)CC2 [Compound 90, 6-chloro-7-(3-fluorophenyl)-N^2-(oxetan-3-yl)-3,4-dihydropyrrolo[1,2-a]pyrazine-2,8(1H)-dicarboxamide] | 184 to 186 °C | 6 to 7 nM
15 | CC(C)(C)NC(=O)N1CCn2c(Br)c(-c3cccc(F)c3)c(C(N)=O)c2C1 [Compound 104, 6-bromo-7-(3-fluorophenyl)-N^2-tert-butyl-3,4-dihydropyrrolo[1,2-a]pyrazine-2,8(1H)-dicarboxamide] | 184 to 189 °C | < 1 nM
16 | CC(C)CCNC(=O)N1CCn2c(Cl)c(-c3ccccc3)c(C(N)=O)c2C1 [Compound 69, 6-chloro-N^2-(3-methylbutyl)-7-phenyl-3,4-dihydropyrrolo[1,2-a]pyrazine-2,8(1H)-dicarboxamide] | 154 to 155 °C | 5 nM
17 | CC1(CNC(=O)N2CCn3c(Cl)c(-c4cccc(F)c4)c(C(N)=O)c3C2)COC1 [Compound 91, 6-chloro-7-(3-fluorophenyl)-N^2-(3-methyl-oxetan-3-ylmethyl)-3,4-dihydropyrrolo[1,2-a]pyrazine-2,8(1H)-dicarboxamide] | 249 to 253 °C | 4 nM
18 | N#Cc1c(-c2cccc(F)c2)c(C(N)=O)c2n1CCN(C(=O)NCCCC(F)(F)F)C2 [Compound 108, 6-cyano-7-(3-fluorophenyl)-N^2-(4,4,4-trifluoro-butyl)-3,4-dihydropyrrolo[1,2-a]pyrazine-2,8(1H)-dicarboxamide] | 169 to 171 °C | 4 nM
19 | COc1ccc(-c2cn3c(c2C(N)=O)CN(C(=O)NC(C)(C)C)CC3)cc1 [Compound 2, N^2-tert-butyl-7-(4-methoxyphenyl)-3,4-dihydropyrrolo[1,2-a]pyrazine-2,8(1H)-dicarboxamide] | 197 to 198 °C | < 1 nM
20 | N#Cc1cccc(-c2c(C(N)=O)c3n(c2Cl)CCN(C(=O)NC2CCOCC2)C3)c1 [Compound 95, 6-chloro-7-(3-cyanophenyl)-N^2-(tetrahydro-2H-pyran-4-yl)-3,4-dihydropyrrolo[1,2-a]pyrazine-2,8(1H)-dicarboxamide] | 236 to 238 °C | 6 nM
21 | CC(C)(C)NC(=O)N1CCn2c(Cl)c(-c3cccc(C#N)c3)c(C(N)=O)c2C1 [Compound 65, N^2-tert-butyl-6-chloro-7-(3-cyanophenyl)-3,4-dihydropyrrolo[1,2-a]pyrazine-2,8(1H)-dicarboxamide] | 192 to 195 °C | 1 to 2 nM
22 | COCC(C)(C)NC(=O)N1CCn2c(c(C(N)=O)c(-c3ccc(OC)cc3)c2C2CC2)C1 [Compound 57, 6-cyclo-propyl-N^2-(1-methoxy-2-methylpropan-2-yl)-7-(4-methoxyphenyl)-3,4-dihydropyrrolo[1,2-a]pyrazine-2,8(1H)-dicarboxamide] | 168 to 170 °C | 36 nM

Source: patent US9233965B2, “3,4-dihydropyrrolo[1,2-A]pyrazine-2,8(1H)-dicarboxamide derivatives, preparation thereof and therapeutic use thereof for diseases involving casein kinase 1 epsilon and/or casein kinase 1 delta” (SANOFI, priority 2010, dated 2016)
